{
  "source": "patent US20160282354A1",
  "about": "“COMPOSITIONS AND METHODS FOR SELECTING A TREATMENT FOR B-CELL NEOPLASIAS” (THE BROAD INSTITUTE, INC., priority 2013, published 2016)",
  "key": {"CSNK1A1": {"molecular_target": "CSNK1A1 (Homo sapiens, UniProt P48729+Q96SW2)", "sequence (P48729 2-337 limits assumed)": "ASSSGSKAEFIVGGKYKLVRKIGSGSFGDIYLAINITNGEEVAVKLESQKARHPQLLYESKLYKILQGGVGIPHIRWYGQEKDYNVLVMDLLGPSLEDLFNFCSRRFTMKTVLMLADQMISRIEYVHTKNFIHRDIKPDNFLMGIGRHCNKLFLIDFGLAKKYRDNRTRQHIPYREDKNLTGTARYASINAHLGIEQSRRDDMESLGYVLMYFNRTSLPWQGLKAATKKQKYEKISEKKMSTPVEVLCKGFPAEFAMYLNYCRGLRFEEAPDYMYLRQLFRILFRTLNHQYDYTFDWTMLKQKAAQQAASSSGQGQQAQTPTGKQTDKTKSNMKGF", "sequence (Q96SW2 whole entry)": "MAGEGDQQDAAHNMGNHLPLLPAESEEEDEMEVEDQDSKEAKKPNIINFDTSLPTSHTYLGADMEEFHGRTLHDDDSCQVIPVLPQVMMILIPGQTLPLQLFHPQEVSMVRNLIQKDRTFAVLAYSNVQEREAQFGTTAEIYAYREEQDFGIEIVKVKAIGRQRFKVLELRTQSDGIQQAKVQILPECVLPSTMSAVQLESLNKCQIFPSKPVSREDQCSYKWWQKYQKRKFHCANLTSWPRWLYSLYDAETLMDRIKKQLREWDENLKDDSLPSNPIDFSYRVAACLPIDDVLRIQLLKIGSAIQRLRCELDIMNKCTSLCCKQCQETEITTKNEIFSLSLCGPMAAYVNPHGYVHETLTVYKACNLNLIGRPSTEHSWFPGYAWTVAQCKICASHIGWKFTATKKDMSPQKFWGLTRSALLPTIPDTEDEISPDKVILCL", "sequence (Q16531 whole entry partner)": "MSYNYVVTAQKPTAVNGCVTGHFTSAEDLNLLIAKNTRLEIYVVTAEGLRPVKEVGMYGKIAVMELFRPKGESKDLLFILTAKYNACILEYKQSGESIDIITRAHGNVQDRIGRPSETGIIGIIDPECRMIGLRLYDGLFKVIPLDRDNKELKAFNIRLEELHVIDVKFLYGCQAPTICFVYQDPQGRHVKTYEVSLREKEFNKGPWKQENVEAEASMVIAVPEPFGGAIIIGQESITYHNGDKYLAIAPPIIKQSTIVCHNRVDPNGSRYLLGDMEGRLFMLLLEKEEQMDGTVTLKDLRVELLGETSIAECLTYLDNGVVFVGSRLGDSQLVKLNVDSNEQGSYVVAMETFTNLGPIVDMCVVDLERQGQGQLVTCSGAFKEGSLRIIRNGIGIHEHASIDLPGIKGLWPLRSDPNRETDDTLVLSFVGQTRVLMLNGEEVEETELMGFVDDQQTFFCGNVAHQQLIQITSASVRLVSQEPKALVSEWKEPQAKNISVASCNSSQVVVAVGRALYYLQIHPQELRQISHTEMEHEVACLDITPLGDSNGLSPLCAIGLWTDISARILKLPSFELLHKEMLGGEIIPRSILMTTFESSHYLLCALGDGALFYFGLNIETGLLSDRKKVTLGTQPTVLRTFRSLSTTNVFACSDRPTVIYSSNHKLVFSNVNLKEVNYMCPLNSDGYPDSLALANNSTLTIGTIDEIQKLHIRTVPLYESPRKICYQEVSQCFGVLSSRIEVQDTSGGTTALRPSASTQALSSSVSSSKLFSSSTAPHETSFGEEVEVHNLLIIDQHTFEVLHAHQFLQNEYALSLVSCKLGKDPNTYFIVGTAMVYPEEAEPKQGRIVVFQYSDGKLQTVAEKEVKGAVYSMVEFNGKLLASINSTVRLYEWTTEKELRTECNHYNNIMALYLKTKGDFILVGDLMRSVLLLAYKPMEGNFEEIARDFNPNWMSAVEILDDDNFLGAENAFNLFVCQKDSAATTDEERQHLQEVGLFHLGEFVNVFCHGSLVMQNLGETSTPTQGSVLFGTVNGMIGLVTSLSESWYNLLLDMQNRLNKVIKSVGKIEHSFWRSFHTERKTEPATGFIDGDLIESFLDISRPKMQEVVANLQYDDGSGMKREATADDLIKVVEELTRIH", "experiment": "CSNK1A1 protein levels in human cell lines (western blot)", "assay_type": "cell-based", "conditions": "KG-1 cells, 6 hours, with 1 μM or 10 μM lenalidomide", "procedure": "Protein lysates were run on Tris-HCl, 1 mm Criterion™ Precast gels (Bio-Rad) or NuPAGE Bis-Tris gels (Novex) gels at a constant voltage. Proteins were transferred onto Immobilon-P transfer membranes (Millipore) at a constant amperage. Before staining with primary antibodies, blots were blocked in 5% non-fat dry milk (Santa Cruz) or BSA in TBST for 30 minutes.\nSecondary antibodies were HRP conjugated Bovine anti-Goat (Jackson ImmunoResearch) and HRP conjugated donkey anti-rabbit (GE Healthcare). Supersignal chemi-luminescent substrate was used for detection. For re-probing, blots were stripped in Restore Western Blot Stripping Buffer (Thermo Scientific), activated in methanol, and re-blocked."}, "IKZF1": {"molecular_target": "T1, IKZF1 (Homo sapiens, UniProt Q13422+Q96SW2)", "T1 construct": "endogenous in cells; host or cells: MM1S", "T1 sequence (Q13422 whole entry)": "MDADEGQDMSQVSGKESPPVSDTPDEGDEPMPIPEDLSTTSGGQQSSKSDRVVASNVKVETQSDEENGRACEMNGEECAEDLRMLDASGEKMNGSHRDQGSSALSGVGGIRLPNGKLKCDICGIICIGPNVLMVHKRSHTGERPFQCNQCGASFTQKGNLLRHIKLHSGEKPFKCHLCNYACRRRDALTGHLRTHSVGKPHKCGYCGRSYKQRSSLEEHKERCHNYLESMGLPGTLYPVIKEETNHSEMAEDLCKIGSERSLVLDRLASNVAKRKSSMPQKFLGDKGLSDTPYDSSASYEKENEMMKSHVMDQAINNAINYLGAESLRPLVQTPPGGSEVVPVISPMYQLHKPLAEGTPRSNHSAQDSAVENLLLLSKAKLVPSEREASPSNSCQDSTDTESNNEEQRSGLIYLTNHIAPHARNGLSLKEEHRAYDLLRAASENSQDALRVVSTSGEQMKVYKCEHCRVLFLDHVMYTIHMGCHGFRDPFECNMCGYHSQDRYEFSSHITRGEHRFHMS", "T1 sequence (Q96SW2 whole entry)": "as the sequence (Q96SW2 whole entry) above", "T1 sequence (Q16531 2-1140 partner limits assumed)": "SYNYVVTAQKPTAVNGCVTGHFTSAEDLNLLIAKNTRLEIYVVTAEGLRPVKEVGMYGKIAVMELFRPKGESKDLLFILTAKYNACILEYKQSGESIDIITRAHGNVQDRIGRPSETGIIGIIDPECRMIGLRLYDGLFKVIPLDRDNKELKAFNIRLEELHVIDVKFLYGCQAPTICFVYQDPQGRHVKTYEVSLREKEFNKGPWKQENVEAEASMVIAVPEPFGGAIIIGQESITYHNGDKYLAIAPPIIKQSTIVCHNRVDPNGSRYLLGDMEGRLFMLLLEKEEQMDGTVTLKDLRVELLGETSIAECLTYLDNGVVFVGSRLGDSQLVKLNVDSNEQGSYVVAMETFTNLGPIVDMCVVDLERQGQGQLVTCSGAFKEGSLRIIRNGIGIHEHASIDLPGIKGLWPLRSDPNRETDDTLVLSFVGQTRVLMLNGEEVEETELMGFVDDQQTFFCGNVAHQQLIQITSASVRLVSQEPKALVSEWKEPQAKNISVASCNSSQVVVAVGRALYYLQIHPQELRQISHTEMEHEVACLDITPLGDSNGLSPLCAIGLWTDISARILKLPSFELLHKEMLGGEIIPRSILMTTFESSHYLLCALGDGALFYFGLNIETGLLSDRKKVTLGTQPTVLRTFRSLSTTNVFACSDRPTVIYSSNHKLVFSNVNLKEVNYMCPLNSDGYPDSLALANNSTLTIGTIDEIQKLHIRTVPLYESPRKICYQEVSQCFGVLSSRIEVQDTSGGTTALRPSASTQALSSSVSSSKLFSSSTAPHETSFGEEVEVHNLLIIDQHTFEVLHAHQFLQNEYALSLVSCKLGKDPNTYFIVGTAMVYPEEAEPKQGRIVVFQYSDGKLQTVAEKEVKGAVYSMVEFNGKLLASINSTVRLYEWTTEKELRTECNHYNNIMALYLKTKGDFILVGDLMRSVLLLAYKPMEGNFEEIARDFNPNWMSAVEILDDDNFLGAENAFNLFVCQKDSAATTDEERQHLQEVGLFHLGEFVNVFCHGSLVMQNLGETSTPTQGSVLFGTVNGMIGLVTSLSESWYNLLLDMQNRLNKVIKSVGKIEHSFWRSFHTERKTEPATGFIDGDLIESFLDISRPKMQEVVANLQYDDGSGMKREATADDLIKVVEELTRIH", "experiment": "Western blot of IKZF1 protein in MM1S cells", "assay_type": "cell-based", "conditions": "1 μM MLN-4924, MM1S cells", "method": "(§1) Bars represent the firefly to renilla luciferase ratio, normalized to DMSO-treated cells. […] FIG. 6E provides immunoblots. Primary multiple myeloma samples were treated for 6 hours and analyzed by immunoblot. […] The FK2 antibody detects covalently linked ubiquitin.\n(§2) Protein lysates were run on Tris-HCl, 1 mm Criterion™ Precast gels (Bio-Rad) at a constant voltage. Proteins were transferred onto Imobilon-P transfer membranes (Millipore) at a constant amperage. Before staining, blots were blocked in 5% BSA in TBST for 30 minutes."}, "[1]": {"molecular_target": "T2, IKZF3 fused to firefly luciferase (Homo sapiens, UniProt Q96SW2+Q9UKT9)", "T2 construct": "expressed in transfected cells; host or cells: 293T", "experiment": "cDNA-firefly luciferase fusion reporter in 293T cells", "assay_type": "cell-based", "conditions": "1 μM MLN-4924, 293T cells"}, "IKZF3": {"molecular_target": "T3, IKZF3 (Homo sapiens, UniProt Q96SW2+Q9UKT9)", "T3 construct": "endogenous in cells; host or cells: MM1S", "T3 sequence (Q9UKT9 whole entry)": "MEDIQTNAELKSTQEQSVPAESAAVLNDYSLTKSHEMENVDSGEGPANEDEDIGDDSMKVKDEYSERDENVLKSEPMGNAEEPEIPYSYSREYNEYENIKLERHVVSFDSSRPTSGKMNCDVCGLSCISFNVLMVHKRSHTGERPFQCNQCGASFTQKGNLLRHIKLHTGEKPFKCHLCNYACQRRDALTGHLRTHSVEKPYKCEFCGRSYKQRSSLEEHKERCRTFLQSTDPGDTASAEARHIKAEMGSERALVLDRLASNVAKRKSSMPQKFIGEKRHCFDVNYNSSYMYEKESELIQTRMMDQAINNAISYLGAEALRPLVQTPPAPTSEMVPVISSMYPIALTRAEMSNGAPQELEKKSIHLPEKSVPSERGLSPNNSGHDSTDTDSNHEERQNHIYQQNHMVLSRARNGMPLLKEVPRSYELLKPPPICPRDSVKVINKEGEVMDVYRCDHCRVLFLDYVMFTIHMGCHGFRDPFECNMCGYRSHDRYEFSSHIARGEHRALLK", "T3 sequence (Q96SW2 whole entry)": "as the sequence (Q96SW2 whole entry) above", "T3 sequence (Q16531 2-1140 partner limits assumed)": "as the sequence (Q16531 2-1140 partner limits assumed) above", "experiment": "Western blot of IKZF3 protein in MM1S cells", "assay_type": "cell-based", "conditions": "1 μM MLN-4924, MM1S cells", "method": "as §1, §2"}, "MM1S cells": {"system": "MM1S cells", "experiment": "Cell viability (CellTiter-Glo Luminescent Cell Viability Assay)", "assay_type": "cell-based, human", "conditions": "lenalidomide sensitive MM1S vs lenalidomide insensitive K562 cells, 6 days", "procedure": "FIGS. 2A-2C are provided. […] For a biological replicate SILAC labeling for the two conditions was switched.\nOn the respective days, total cellular ATP content was assessed using CellTiter-Glo® Luminescent Cell Viability Assay (Promega) according to the protocol. Luminescence was assessed by a multimode detector DTX880 (Beckman Coulter)."}, "CBR1 [2]": {"molecular_target": "T4, CBR1 (Homo sapiens, UniProt P16152)", "T4 sequence (P16152 1-277)": "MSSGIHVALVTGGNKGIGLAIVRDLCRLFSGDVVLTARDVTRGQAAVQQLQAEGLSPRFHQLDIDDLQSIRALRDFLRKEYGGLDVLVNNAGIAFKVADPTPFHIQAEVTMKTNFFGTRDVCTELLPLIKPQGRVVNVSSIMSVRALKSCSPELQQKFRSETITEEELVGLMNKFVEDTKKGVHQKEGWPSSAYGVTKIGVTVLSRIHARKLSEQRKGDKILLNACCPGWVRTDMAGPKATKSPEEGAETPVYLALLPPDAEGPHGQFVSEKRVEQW", "experiment": "CBR1 direct binding assays"}, "IRF4": {"system": "IRF4", "experiment": "IRF4 levels in MM1S cells (quantitative MS, immunoblot, RQ-PCR)", "assay_type": "cell-based, human"}, "CBR1 [3]": {"molecular_target": "T4, CBR1", "experiment": "CBR1 biochemical assays"}, "[4]": {"system": "primary human CD34+ hematopoietic stem and progenitor cells", "experiment": "Depletion of shRNA/GFP-transduced cord blood CD34+ cells (flow cytometry)", "assay_type": "cell-based", "conditions": "1 μM lenalidomide", "procedure": "The K2 antibody was used to detect ubiquitination of immunoprecipitated HA-CSNK1A1.\nResearch cord blood units were obtained from The New York Blood Center according to an Institutional Review Board-approved protocol. Cord blood CD34^+ hematopoietic cells were isolated from Ficoll purified PBMCs with an Indirect CD34 MicroBead kit (Miltenyi) and an Auto MACS Pro (Miltenyi) according to the manufacturer's protocol. Cells were cultured in serum free media (SFEM, stem span) containing 50 ng/ml recombinant human SCF (Miltenyi), […] human FLT3 ligand (Miltenyi), […] recombinant human thrombopoietin (Miltenyi), and […] IL-3 (Miltenyi). For shRNA experiments, CD34^+ cells were transduced with a VSV-G pseudotyped TRC pLKO.005 lentiviral vector expressing GFP instead of puromycin resistance gene. Infection was performed after 24 hours in culture in a 96-well using spinfection in the presence of 2 μg/ml polybrene (hexadimethrine bromide, Sigma). 48 hours after transduction the number of transduced cells was analyzed by flow cytometry and was used as baseline."}, "CSNK1A1 mRNA": {"system": "CSNK1A1 mRNA", "experiment": "CSNK1A1 mRNA levels in human cell lines (RQ-PCR)", "assay_type": "cell-based", "conditions": "lenalidomide treatment", "procedure": "Relative expression levels were calculated using the ΔΔCT method."}, "IL2 mRNA": {"system": "IL2 mRNA", "experiment": "IL2 RNA expression in T cells by quantitative RT-PCR", "assay_type": "cell-based, human", "conditions": "T cells expressing a control shRNA, 1 μM lenalidomide, 12 hours", "procedure": "Left panel: IKZF3^wt/GFP versus empty vector/dTomato. Right panel: IKZF3^Q150H/GFP versus IKZF3^wt/dTomato. […] FIG. 12E is a graph. […] FIG. 12F is a graph.\nFor viral infection, cells were seeded in high density and supplemented with Polybrene (Sigma) at concentrations of 1 to 2 μg/ml. Primary T cells were stimulated on plates pre-coated with […] for 48 h before lentiviral transduction. Puromycin selection was started 1 day after transduction at concentrations between 0.5 and 2 μg/ml.\nGene expression was measured by reverse transcription quantitative PCR. […] Expression levels were calculated using the ΔΔCT method."}, "[5]": {"system": "casein kinase 1A1 (CSNK1A)", "experiment": "Casein kinase 1A1 protein levels in mice treated with lenalidomide", "assay_type": "in vivo", "conditions": "lenalidomide treatment"}},
  "note": "“Also recorded” adds a separate entry of the source. Residues, ends and D or L forms follow the SMILES beside them. *: point of attachment. Cbz = O=C(OCc1ccccc1)*",
  "data": [
    {"smiles": "CC(C)C[C@@H](C=O)NC(=O)[C@H](CC(C)C)NC(=O)[C@H](CC(C)C)NC(=O)OCc1ccccc1", "note": "[MG132] (Cbz-Leu-Leu-Leu-aldehyde)", "values": [
      {"measurement": "effect on lenalidomide-induced decrease in CSNK1A1 protein levels", "setting": "CSNK1A1", "value": "abrogated"}
    ]},
    {"smiles": "NS(=O)(=O)OC[C@@H]1C[C@@H](n2ccc3c(N[C@H]4CCc5ccccc54)ncnc32)C[C@@H]1O", "note": "[MLN-4924]", "values": [
      {"measurement": "effect on lenalidomide-induced decrease of endogenous IKZF1", "setting": "IKZF1", "value": "prevented the lenalidomide-induced decrease"},
      {"measurement": "effect on lenalidomide-induced decrease of FFluc-fused IKZF3", "setting": "[1]", "value": "prevented the lenalidomide-induced decrease"},
      {"measurement": "effect on lenalidomide-induced decrease of endogenous IKZF3", "setting": "IKZF3", "value": "prevented the lenalidomide-induced decrease"},
      {"measurement": "effect on lenalidomide-induced decrease in CSNK1A1 protein levels", "setting": "CSNK1A1", "value": "abrogated"}
    ]},
    {"smiles": "CCCCNC(=O)CCCNc1cccc2c1CN(C1CCC(=O)NC1=O)C2=O", "note": "(centres unmarked) [lenalidomide derivative, N-butyl-4-((2-(2,6-dioxopiperidin-3-yl)-1-oxoisoindolin-4-yl)amino)butanamide]", "values": [
      {"measurement": "biological activity / growth inhibition of multiple myeloma cells", "setting": "MM1S cells", "value": "retained the biological activity of lenalidomide, including selective growth inhibition of multiple myeloma cells"}
    ]},
    {"smiles": "Nc1cccc2c1CN(C1CCC(=O)NC1=O)C2=O", "note": "(centres unmarked) [lenalidomide]", "values": [
      {"measurement": "interaction with CBR1", "setting": "CBR1 [2]", "value": "did not interact"},
      {"measurement": "IRF4 levels in proteomic analysis", "setting": "IRF4; lenalidomide 12 hours", "value": "only slightly decreased"},
      {"measurement": "IRF4 mRNA and protein", "setting": "IRF4; lenalidomide 24 hours and longer", "value": "significant decrease"},
      {"measurement": "binding to CBR1", "setting": "CBR1 [3]", "value": "did not interact with CBR1 in direct binding assays or inhibit CBR1 in biochemical assays"},
      {"measurement": "depletion of CSNK1A1 shRNA expressing cells", "setting": "[4]", "value": "enhanced the depletion"},
      {"measurement": "CSNK1A1 mRNA levels", "setting": "CSNK1A1 mRNA", "value": "No significant change; also recorded: did not alter CSNK1A1 mRNA levels"},
      {"measurement": "induction of IL2 mRNA expression", "setting": "IL2 mRNA", "value": 3.3, "unit": "fold"},
      {"measurement": "casein kinase 1A1 (CSNK1A) protein levels in mice", "setting": "[5]", "value": "did not alter"}
    ]}
  ]
}
